One series has as its system liver fibrosis. Kind of series: Carbon tetrachloride liver fibrosis mouse model (hydroxyproline analysis). The settings on record: D30, versus carbon tetrachloride mice without intervention. Type of series: in vivo. On the procedure: In order to determine if PLCs have a beneficial effect in treating liver fibrosis, fibrosis was initiated with 3× weekly application of 0.1 mL/kg injection of carbon tetrachloride diluted in corn oil for 2 weeks; control mice received corn oil itself for those 2 weeks. Carbon tetrachloride applications continued throughout the next step. Mice that received carbon tetrachloride were separated into 3 cohorts at the two-week mark: • 1. Plasmalyte application on D15, 22, 29 (Carbon Tet mice) • 2. rHGF diluted to 30 ug/mL in plasmalyte and dosed daily at 0.3 mg/kg (Peprotech HGF 100-39H-1 mg) • 3. PLC applications of ˜3e10 Platelet Equivalency Units (PEUs)/kg per mouse on D15, 22, 29. D15 was 5e10, D22 was 3e10, D29 was 5e10.
All mice were sacrificed on D30, livers were excised, and fresh frozen for ˜2-3 hours. Hydroxyproline analysis was done using a hydroxyproline kit (Abcam #ab222941).
Briefly, livers were trimmed, weighed, and the homogenized in DI water at ˜10 uL water/mg of liver with a Dounce homogenizer. The equivalent of 10 mg (˜100 uL) were removed and digested in equal volume 10N NaOH for 2 hours at 120° C. Samples were cooled and quenched with 100 uL 10N HCl, vortexed, and then spun in a centrifuge for 5 mins at 10,000×g. […] Samples were then processed as the manufacturer directed and analyzed with a plate reader. […]

A short description of series [1]: In vivo localization of PLCs/HGF-ePLCs in fibrotic mice. Set-up: species or system Immune-deficient mice (NSG). The conditions noted are these: 30 mins after treatment. On the procedure: Immune-deficient mice (NSG) were dosed with 0.25 mL/kg of carbon tetrachloride 3 times per week for 2 weeks to initiate liver fibrosis. Control mice were treated with similar volumes of corn oil. On D15, fibrotic mice were treated with the following: Plasmalyte, recombinant HGF (Peprotech Cat #100-39H-1 mg), PLCs that had been generated the previous day and diluted in plasmalyte, or HGF-ePLCs that had been generated the previous day and diluted in plasmalyte. Treatments were allowed to circulate for 30 mins and then mice were sacrificed, exsanguinated, and livers were prepared and frozen for analysis.
FIG. 32B examines circulating PLCs in blood. Blood from PLC or ePLC treatment mice was analyzed via flow cytometry with a human-specific CD61 antibody (Miltenyi Cat #130-110-754) as an indicator of circulating PLCs/ePLCs. […] In FIG. 32C, fluorescence staining of livers removed from treated fibrotic mice for HGF were performed. Livers were embedded in OCT, sectioned, and mounted on slides. Sections were then fixed in ice-cold Acetone for 10 mins and dried for an additional 20 mins. […] The results shown in FIG. 32D show fluorescence staining of livers removed from treated fibrotic mice for CD61. […]

Take “HGF: recombinant HGF (Peprotech HGF 100-39H-1 mg)”: the “collagen per weight of liver” value in the series with liver fibrosis is reported as “apparent reduction of collagen per weight of liver”. Further, in series [1], the “HGF signal in liver (fluorescence staining)” value is listed as “increase HGF signal”.

These data come from patent publication US20220143095A1, “NOVEL ANUCLEATED CELLS AND USES THEREOF” (Platelet Biogenesis, Inc., priority 2020, published 2022).
